Source: patent EP0135172A2, “Method for treatment of osteoporosis” (Takeda Chemical Industries, Ltd., priority 1983, dated 1985)

What was measured:
[1] = test system: rat fetal long bone culture; test: Bone resorption inhibiting activity in rat fetal long bone culture (45Ca release, method of Raisz); format: cell-based, Sprague-Dawley rat; details: for ^45Ca (%) released: incubated 3 days, mean ± S.D. of six bones; for bone resorption: result in words, summary of Table 3
Method: Determination of bone resorption was performed by the method of Raisz [J. Clin. Invest. 44, 103-116 (1965)]. rhus, a Sprague-Dawley rat on the 19th day of pregnancy was subcutaneously injected with 50 p Ci of 45Ca (isotope of calcium, CaCl2 solution), and was laparotomized on the following day. The embryos were aseptically taken out, the forelimbs (radius and ulna) were cut off from the trunk under a binocular dissecting microscope, and the connective tissue and cartilage were removed as much as possible to prepare bone samples. Each bone sample was preincubated at 37°C for 24 hours in 0.6 mℓ of the medium containing 2 mg/mℓ of bovine serum albumin in BGJb medium (Fitton-Jackson modification) [GIBCO Laboratories, Grand Island, NY 14072 U.S.A.]. Then, the sample was further incubated for 3 days in the same medium as above in which 10 µg/mℓ or 25 µg/mℓ of compound (I) or 10 µg/mℓ of compound (II) had been incorporated. Then, the radioactivity of 45Ca in the medium and that of 45Ca in the bone were measured and the percentage (%) of ^45Ca released from the bone into the medium was calculated by the following formula.
Percentage (%) of 45 Ca released from bone into medium [formula]
As control, the bones of the embryos from the same litter were similarly incubated in the absence of compound (I) or (II) for 3 days.

[2] = test system: young oophorectomized rats; test: Estrogenic activity (uterine wet weight) in young oophorectomized rats; format: in vivo, Sprague-Dawley rats
Method: Sprague-Dawley rats, 33 days old and 11 days after oophorectomy for elimination of endogenous estrogenic activity, were used in groups of 6 to 7 animals. Compound (I) was suspended in a 1% aqueous solution of hydroxypropylcellulose and administered orally for 3 days, while as a representative example of the conventional estrogen drug, estrone was dissolved in sesame oil and administered subcutaneously for 3 days. On the fourth day, each animal was autopsied and its uterine wet weight was recorded.
Sprague-Dawley rats, 33 days old and 11 days after oophorectomy for elimination of endogenous estrogenic activity, were used in groups of 7 animals. Compound (II) was suspended in a 1% aqueous solution of hydroxypropylcellulose and administered orally.

Sprague-Dawley rats = test: Acute toxicity in rats; format: in vivo; details: observed 14 days, LD50 could not be calculated
Method: (§1) Five-week-old ICR mice and 5-week-old Sprague-Dawley rats were respectively used in groups of 10 males and 10 females, and suspensions of compound (I) or compound (II) in olive oil were administered orally [2,500, 5,000 and 10,000 mg/kg of each compound] or subcutaneously [1,250, 2,500 and 5,000 mg/kg]. The animals were kept under observation for 14 days.

ICR mice = test: Acute toxicity in mice; format: in vivo; details: observed 14 days, LD50 could not be calculated
Method: as §1

[3] = test system: rat fetal long bone culture; test: Inhibition of the bone resorption potentiating action of parathyroid hormone in rat fetal long bone culture; format: cell-based
Method: The bone samples prepared in the same manner as Test Example 3 were pre-incubated for 24 hours in the same medium as that prepared in Test Example 3 which contains bovine serum album in BGJb medium (Fitton-Jackson modification). Then, in the concomitant presence of PTH (parathyroid hormone, a bone resorption stimulant) and compound (II), the samples were further incubated for 3 days and the percentage of ^45Ca released into the medium was calculated by means of the same formula as that in Test Example 3. As control experiments, the same determination was made for a control group using the medium supplemented with PTH alone.

[4] = orally 2,500, 5,000 and 10,000 mg/kg in olive oil
[5] = subcutaneously 1,250, 2,500 and 5,000 mg/kg in olive oil

## O=c1c(-c2ccccc2)coc2cc(O)ccc12 [Compound (I), 7-hydroxy-isoflavone]
[1]; 10 µg/mℓ, control group 20.6 ± 3.8
  ^45Ca (%) released: 16.5 ± 2.5 %
[1]; 25 µg/mℓ, control group 20.6 ± 3.8
  ^45Ca (%) released: 13.5 ± 2.5 %
[1]
  bone resorption: suppressed bone resorption
[2]; daily dose 6.25 mg/kg orally for 3 days, control group 35.0 ± 1.0
  Uterine wet weight (mg ± S.D.): 32.8 ± 1.1 mg
[2]; daily dose 12.5 mg/kg orally for 3 days, control group 35.0 ± 1.0
  Uterine wet weight (mg ± S.D.): 33.4 ± 0.9 mg
[2]; daily dose 25 mg/kg orally for 3 days, control group 35.0 ± 1.0
  Uterine wet weight (mg ± S.D.): 35.1 ± 0.8 mg
[2]; daily dose 50 mg/kg orally for 3 days, control group 35.0 ± 1.0
  Uterine wet weight (mg ± S.D.): 35.3 ± 1.7 mg
[2]; daily dose 100 mg/kg orally for 3 days, control group 35.0 ± 1.0
  Uterine wet weight (mg ± S.D.): 35.9 ± 1.0 mg
[2]; daily dose 200 mg/kg orally for 3 days, control group 35.0 ± 1.0
  Uterine wet weight (mg ± S.D.): 57.9 ± 1.0 mg
[2]; daily dose 400 mg/kg orally for 3 days, control group 35.0 ± 1.0
  Uterine wet weight (mg ± S.D.): 70.4 ± 6.7 mg
[2]; orally, daily dose levels of 200 mg/kg and 400 mg/kg
  uterine weight increasing effect, dose-response curve: produced uterine weight increasing effect with a dose-response curve of moderate gradient

## O=c1c(-c2ccc(O)cc2)coc2cc(O)ccc12 [Compound (II), 7,4'-dihydroxy-isoflavone]
Sprague-Dawley rats; [4]
  deaths and toxic symptoms: None of the groups showed deaths nor toxic symptoms
Sprague-Dawley rats; [5]
  deaths and toxic symptoms: None of the groups showed deaths nor toxic symptoms
[1]; 10 µg/mℓ, control group 19.9 ± 5.0
  ^45Ca (%) released: 15.9 ± 1.3 %
[1]
  bone resorption: suppressed bone resorption
ICR mice; [4]
  deaths and toxic symptoms: None of the groups showed deaths nor toxic symptoms
ICR mice; [5]
  deaths and toxic symptoms: None of the groups showed deaths nor toxic symptoms
[3]; 10 µg/ml in concomitant presence of PTH, incubated 3 days, control group (PTH alone) 30.8±4.3
  ^45Ca (%) released: 23.5±3.4 %
[3]; result in words, summary of Table 4
  PTH-stimulated bone resorption: suppressed PTH-stimulated bone resorption
[2]; Test Example 2, daily dose 6.25 mg/kg orally, control group 31.1 ± 1.1
  Uterine wet weight (mg ± S.D.): 33.2 ± 0.8 mg
[2]; Test Example 2, daily dose 25 mg/kg orally, control group 31.1 ± 1.1
  Uterine wet weight (mg ± S.D.): 32.8 ± 1.0 mg
[2]; Test Example 2, daily dose 100 mg/kg orally, control group 31.1 ± 1.1
  Uterine wet weight (mg ± S.D.): 35.3 ± 1.3 mg
[2]; Test Example 2, daily dose 400 mg/kg orally, control group 31.1 ± 1.1
  Uterine wet weight (mg ± S.D.): 62.3 ± 6.0 mg
[2]; orally, dose level of 400 mg/kg
  uterine weight increasing activity: showed mild uterine weight increasing activity

## C[C@]12CC[C@@H]3c4ccc(O)cc4CC[C@H]3[C@@H]1CCC2=O [Estrone, estrone, reference compound]
[2]; daily dose 0.0025 mg/kg subcutaneously in sesame oil for 3 days, control group 35.0 ± 1.0
  Uterine wet weight (mg ± S.D.): 101.7 ± 4.6 mg
[2]; daily dose 0.005 mg/kg subcutaneously in sesame oil for 3 days, control group 35.0 ± 1.0
  Uterine wet weight (mg ± S.D.): 159.8 ± 9.4 mg
[2]; daily dose 0.01 mg/kg subcutaneously in sesame oil for 3 days, control group 35.0 ± 1.0
  Uterine wet weight (mg ± S.D.): 223.3 ± 12.5 mg
